Test results published in article PMC10882719 (Frontiers in Neuroscience, 2024).

What was measured:
[1] = molecular target: T1, DA release (DAT), rat brain synaptosomes (Rattus norvegicus, UniProt P23977); assay: Release assay, [3H]DA, superfused rat brain synaptosomes; assay type: biochemical
T1 construct: Rat brain synaptosomes were isolated from Sprague Dawley rats (200-250 g); from tissue; host or cells: rat brain synaptosomes (Sprague Dawley)
Experimental: (§1) Test compounds and synaptosomes were prepared as described for uptake inhibition assays. Synaptosomes treated with [^3H] 5-HT, [^3H] DA or [^3H] NE were loaded onto filter chambers containing GF/C filters and placed in a superfusion system. Oxygenated Krebs buffer was perfused through the chambers at a rate of 1.5 mL/min at 35°C using either an 8-channel or a 12-channel peristaltic pump. Trapped air bubbles were removed from the filters prior to collecting fractions to ensure an even flow over the synaptosomal bed. After a superfusion period of 45 min, 2 basal fractions were collected followed by 6 fractions following the addition of the test drug. […] After the addition of scintillation cocktail, radioactivity was counted using a Wallac® TriLux 1,450 MicroBeta counter. […] Scintillation cocktail was added, and the filters counted to determine residual radioactivity. Drug-evoked release of neurotransmitter was calculated by subtracting the average of the two basal fractions (collected prior to the drug addition), from the four fractions collected in the presence of drug. The drug-evoked release was then expressed as a percentage of the basal release. Potassium-evoked release was calculated by subtracting the average of two fractions collected prior to the addition of high KCl buffer from that in the two fractions following addition of high KCl buffer. […]

[2] = molecular target: T2, DA uptake (DAT), rat brain synaptosomes (Rattus norvegicus, UniProt P23977); assay: Uptake inhibition assay, [3H]DA, rat brain synaptosomes; assay type: biochemical
T2 construct: Rat brain synaptosomes were isolated from Sprague Dawley rats (200-250 g); from tissue; host or cells: rat brain synaptosomes (Sprague Dawley)

[3] = molecular target: T3, 5HT release (SERT), rat brain synaptosomes (Rattus norvegicus, UniProt P31652); assay: Release assay, [3H]5-HT, superfused rat brain synaptosomes; assay type: biochemical
T3 construct: Rat brain synaptosomes were isolated from Sprague Dawley rats (200-250 g); from tissue; host or cells: rat brain synaptosomes (Sprague Dawley)
Experimental: as §1

[4] = test system: myelin basic protein (MBP); assay: Immunohistochemistry of myelin basic protein in brain; assay type: in vivo, rat; details: 10 mg/kg IP, 24 h, vs vehicle
Experimental: The in-life portion of the study was conducted at WuXi Apptec (Cranbury, NJ). Sectioning and staining of brains took place at Neuroscience Associates (NSA, Knoxville, TN). […] Brains were post-fixed in PFA before shipment to NSA for processing and staining. Hemisected brains were mounted, sectioned and stained using standard protocols with myelin-basic protein primary antibody (MBP SMI-99, 1:5000, Biolegend, San Diego, CA) and anti-mouse biotinylated secondary antibody (BA-2001, Vector Laboratories, Newark, CA). Slides were imaged using a Huron Digital Pathology TissueScope LE120 whole slide scanning system. 20x objective was used with a 0.4um/pixel resolution.

[5] = test system: immobility in the forced swim test; parameters: method as in Warner-Schmidt et al., 2022; details: rats, ref Warner-Schmidt et al., 2022, cited from earlier work
[6] = molecular target: T4, 5HT reuptake (SERT), rat brain synaptosomes (Rattus norvegicus, UniProt P31652); assay: Uptake inhibition assay, [3H]5-HT, rat brain synaptosomes; assay type: biochemical
T4 construct: Rat brain synaptosomes were isolated from Sprague Dawley rats (200-250 g); from tissue; host or cells: rat brain synaptosomes (Sprague Dawley)

[7] = molecular target: T5, NE uptake (NET), rat brain synaptosomes (Rattus norvegicus, UniProt Q63380); assay: Uptake inhibition assay, [3H]NE, rat brain synaptosomes; assay type: biochemical
T5 construct: Rat brain synaptosomes were isolated from Sprague Dawley rats (200-250 g); from tissue; host or cells: rat brain synaptosomes (Sprague Dawley)

[8] = molecular target: T6, NE release (NET), rat brain synaptosomes (Rattus norvegicus, UniProt Q63380); assay: Release assay, [3H]NE, superfused rat brain synaptosomes; assay type: biochemical
T6 construct: Rat brain synaptosomes were isolated from Sprague Dawley rats (200-250 g); from tissue; host or cells: rat brain synaptosomes (Sprague Dawley)
Experimental: as §1

PTSD patients (CAPS-5) = details: open-label, 14 PTSD patients; ref Jones et al., 2023; cited from earlier work

T1 sequence (P23977 whole entry, the tested form may be a part): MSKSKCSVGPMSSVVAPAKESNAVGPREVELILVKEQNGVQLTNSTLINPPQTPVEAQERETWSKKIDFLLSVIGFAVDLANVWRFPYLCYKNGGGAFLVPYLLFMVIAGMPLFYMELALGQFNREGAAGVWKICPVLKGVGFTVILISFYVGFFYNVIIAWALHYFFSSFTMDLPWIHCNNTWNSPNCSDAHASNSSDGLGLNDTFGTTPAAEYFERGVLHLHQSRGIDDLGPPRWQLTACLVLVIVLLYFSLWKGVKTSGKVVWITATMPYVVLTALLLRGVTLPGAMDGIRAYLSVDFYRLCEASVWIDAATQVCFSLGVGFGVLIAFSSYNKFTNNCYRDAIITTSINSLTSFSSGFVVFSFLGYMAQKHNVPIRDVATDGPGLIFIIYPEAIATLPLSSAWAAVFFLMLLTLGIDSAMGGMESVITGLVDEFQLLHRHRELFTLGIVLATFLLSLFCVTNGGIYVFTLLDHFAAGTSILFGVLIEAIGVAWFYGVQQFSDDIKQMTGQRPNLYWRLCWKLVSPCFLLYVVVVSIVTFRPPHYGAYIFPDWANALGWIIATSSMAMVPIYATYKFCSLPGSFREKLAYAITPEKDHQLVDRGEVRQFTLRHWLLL
T2 sequence (P23977 whole entry): as the sequence (P23977 whole entry, the tested form may be a part) above
T3 sequence (P31652 whole entry, the tested form may be a part): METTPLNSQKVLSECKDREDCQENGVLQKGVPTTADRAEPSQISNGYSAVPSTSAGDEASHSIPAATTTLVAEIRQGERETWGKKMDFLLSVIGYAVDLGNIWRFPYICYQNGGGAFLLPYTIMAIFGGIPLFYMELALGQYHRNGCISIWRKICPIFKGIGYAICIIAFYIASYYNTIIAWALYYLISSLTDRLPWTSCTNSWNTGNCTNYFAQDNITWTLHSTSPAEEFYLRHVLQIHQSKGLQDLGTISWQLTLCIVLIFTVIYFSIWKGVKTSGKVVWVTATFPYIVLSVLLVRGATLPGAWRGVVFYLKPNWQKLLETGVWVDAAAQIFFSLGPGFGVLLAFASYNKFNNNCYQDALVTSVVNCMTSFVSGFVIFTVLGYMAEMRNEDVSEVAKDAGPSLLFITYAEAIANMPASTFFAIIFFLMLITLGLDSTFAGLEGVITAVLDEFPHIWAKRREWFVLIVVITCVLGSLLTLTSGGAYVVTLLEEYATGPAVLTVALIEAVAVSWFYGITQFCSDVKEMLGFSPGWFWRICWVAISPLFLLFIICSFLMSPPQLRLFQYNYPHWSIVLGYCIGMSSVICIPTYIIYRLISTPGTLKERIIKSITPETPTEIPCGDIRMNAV
T4 sequence (P31652 whole entry): as the sequence (P31652 whole entry, the tested form may be a part) above
T5 sequence (Q63380 1-617): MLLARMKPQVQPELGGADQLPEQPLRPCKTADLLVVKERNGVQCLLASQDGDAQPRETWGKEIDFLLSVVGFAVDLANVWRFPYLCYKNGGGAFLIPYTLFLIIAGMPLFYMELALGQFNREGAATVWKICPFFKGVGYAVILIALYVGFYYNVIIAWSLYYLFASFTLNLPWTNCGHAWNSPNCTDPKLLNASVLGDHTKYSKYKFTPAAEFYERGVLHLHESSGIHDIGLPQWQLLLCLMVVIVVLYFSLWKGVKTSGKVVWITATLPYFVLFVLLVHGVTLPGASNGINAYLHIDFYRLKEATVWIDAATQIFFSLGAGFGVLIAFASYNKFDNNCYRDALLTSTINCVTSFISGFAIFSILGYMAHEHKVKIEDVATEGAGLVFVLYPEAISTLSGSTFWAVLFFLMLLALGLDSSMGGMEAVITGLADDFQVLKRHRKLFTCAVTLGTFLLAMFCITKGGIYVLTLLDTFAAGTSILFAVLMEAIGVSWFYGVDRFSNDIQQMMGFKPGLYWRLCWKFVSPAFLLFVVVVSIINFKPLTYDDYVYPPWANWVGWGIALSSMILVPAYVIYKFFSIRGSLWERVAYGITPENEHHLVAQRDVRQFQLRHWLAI
T6 sequence (Q63380 1-617): as above

SMILES	EC50 [1] [nM]	Amount of DA released compared to MDMA ([1]; rat brain synaptosomes, Figure 1C)	IC50 [2] [nM]	EC50 [3] [nM]	MBP expression, basolateral nucleus of the amygdala [4]	MBP expression, central nucleus of the amygdala [4]	MBP expression, cortex (control region) [4]	Reduction in immobility in the forced swim test ([5]; 30 min after a single human equivalent dose of 100–150 mg)	Duration of reduction in immobility post-dose ([5]; single dose)	IC50 [6] [nM]	IC50 [7] [nM]	EC50 [8] [nM]	Adverse events (PTSD patients (CAPS-5))	Reduction in CAPS-5 (PTSD patients (CAPS-5)) [point]
CNC(C)C(=O)c1ccc2c(c1)OCO2 (centres unmarked) [methylone]	4790	Less DA was released	2300	620	significant reduction	significant reduction	No change	95–98%	at least 72 h	430	130	330	no significant adverse events	36.2
CNC(C)Cc1ccc2c(c1)OCO2 (centres unmarked) [MDMA, 3,4-Methylenedioxy methamphetamine, reference compound]	–	–	–	–	significant reduction	significant reduction	No change	–	–	–	–	–	–	–
